# Results taken from patent US20090170945A1, “[…]” (priority 2007, published 2009).
# Where a name gives a salt, the structure may show the parent alone.
# Legend:
# [1] = Formation of impurities during salt formation (HPLC) and stability studies; settings: for stability / impurities during salt formation: HPLC after the salt formation
# Protocol: Formation of impurities during the salt forming process was tested by analyzing the samples by HPLC after the salt formation. Salts were also subjected to stability studies in the solid state; particularly, they were subjected to storage at 40 C and 75% RH in the open dish.
# [2] = Thermogravimetric measurements
# [3] = Hygroscopicity of solid state salts under storage at ambient and humid conditions; assay type: physicochemical; settings: for hygroscopicity: storage at ambient and humid (40 C, 75% RH) conditions
# Protocol: Hygroscopicity of solid state pregabalin salts that passed the salt formation criterion were tested under storage at ambient and humid (40 C, 75% RH) conditions.
# [4] = cited from earlier work
# [5] = Solubility in organic solvents; assay type: physicochemical
# Excerpt: Pregabalin is obtainable by known methods, such as those described in EPB 641 330. […].
# Suitable solvents include aliphatic cyclic ethers (e.g. dioxane), esters, and ketones (each of the ethers, esters, and ketones having 3 to 12 carbon atoms), and mixtures thereof as well as mixtures with water. The solubility may be enhanced by heating the reaction mixture. The presence of water enhances the solubility of both reagents (i.e., the pregabalin and the corresponding acid) substantially. Due to the high water solubility of the salt, however, the amount of water in the solvent should be minimized prior to the isolation of the salt (e.g. by evaporation of the solvent prior to the isolation), and preferably water is excluded from the solvent entirely. On the other hand, it was shown that the pregabalin salts of the invention are only slightly soluble in aliphatic ethers (such as diisopropyl ether and methyl tert. butyl ether) so that aliphatic ethers may be used as solvents in the salt forming reaction or as antisolvents for the isolation. Furthermore, alcohols as solvents are preferably avoided, as they may be esterified in the presence of the sulfonic acid to yield corresponding esters as byproducts. Thus alcoholic solvents and other non-inert solvents (e.g. solvents that will react under the salt forming conditions) are generally avoided.
# [6] = per WO 96/40617; cited from earlier work
molecule,measurement,setting,value
Pregabalin p-toluene Sulfonate [pregabalin tosylate],stability in solid state and in solution (overall statement),[1],stable in both the solid state and in solution
same,stability / impurities during salt formation,[1],stable
same,"thermal stability (thermogravimetry), stable up to",[2],160-170 °C
"CC(C)C[C@H](CN)CC(=O)O.O=S(=O)(O)CCS(=O)(=O)O [ethane-1,2-disulfonic acid salt]",hygroscopicity,[3],very hygroscopic
same,water uptake on storage in air,[3]; storage in air (R.T.) for 36 days,formation of a dihydrate
"CC(C)C[C@H](CN)CC(=O)O [Pregabalin, S-(+)-4-amino-3-(2-methylpropyl)butanoic acid]",pKa (acidic carboxy group),[4]; first of the two printed pKa values,4.2
same,pKa (basic amino group),[4]; second of the two printed pKa values,10.6
same,solubility in ethanol,[5],poorly soluble
"CC(C)C[C@H](CN)CC(=O)O.O=C(O)[C@@H](O)c1ccccc1 [pregabalin mandelate, Pregabalin (S)-mandelate]",stability in aqueous solutions,"[1]; aqueous solution, lactam impurity",unstable
same,hydrolysis in water to free pregabalin,[6],easily hydrolyzes in water
maleate,stability / impurities during salt formation,[1],formed with by-products
fumarate,stability / impurities during salt formation,[1],formed with by-products
Pregabalin Benzene Sulfonate [pregabalin besylate],stability in solid state and in solution (overall statement),[1],stable in both the solid state and in solution
same,stability / impurities during salt formation,[1],stable
same,"thermal stability (thermogravimetry), stable up to",[2],160-170 °C
same,hygroscopicity,[3],non-hygroscopic
pregabalin mesylate,stability / impurities during salt formation,[1],stable
"CC(C)C[C@H](CN)CC(=O)O.O=S(=O)(O)c1cccc2c(S(=O)(=O)O)cccc12 [napadisylate, pregabalin 1,5-naphthalene disulfonate]",solid state stability during prolonged storage,"[1]; 40 C and 75% RH, open dish",unstable
same,stability / impurities during salt formation,[1],stable
CC(C)C[C@H](CN)CC(=O)O [pregabalin hydrochloride],hygroscopicity,[3],liquefied
